Measured values reported in PMC10569036.

Legend:
[1] = shake flask on a mixture of 185; loss from the water phase only; LC-QTOF peak areas; settings: room
[2] = shake flask on a mixture of 185; loss from the water phase only; LC-Orbitrap peak areas; settings: room

Compound | log partition 1-octanol / HPLC water, unbuffered, traces of methanol / DMSO [1] [log10] | log partition butyl acetate / HPLC water, unbuffered, traces of methanol / DMSO [1] [log10] | log partition chloroform / HPLC water, unbuffered, traces of methanol / DMSO [1] [log10] | log partition cyclohexane / HPLC water, unbuffered, traces of methanol / DMSO [1] [log10] | log partition dichloromethane / HPLC water, unbuffered, traces of methanol / DMSO [1] [log10] | log partition n-hexane / HPLC water, unbuffered, traces of methanol / DMSO [1] [log10] | log partition n-octane / HPLC water, unbuffered, traces of methanol / DMSO [1] [log10] | log partition n-undecane / HPLC water, unbuffered, traces of methanol / DMSO [1] [log10] | log partition oleylalcohol / HPLC water, unbuffered, traces of methanol / DMSO [1] [log10] | log partition toluene / HPLC water, unbuffered, traces of methanol / DMSO [1] [log10] | log partition 1-octanol / HPLC water, unbuffered, traces of methanol / DMSO [2] [log10] | log partition butyl acetate / HPLC water, unbuffered, traces of methanol / DMSO [2] [log10] | log partition chloroform / HPLC water, unbuffered, traces of methanol / DMSO [2] [log10] | log partition cyclohexane / HPLC water, unbuffered, traces of methanol / DMSO [2] [log10] | log partition dichloromethane / HPLC water, unbuffered, traces of methanol / DMSO [2] [log10] | log partition n-hexane / HPLC water, unbuffered, traces of methanol / DMSO [2] [log10] | log partition n-octane / HPLC water, unbuffered, traces of methanol / DMSO [2] [log10] | log partition n-undecane / HPLC water, unbuffered, traces of methanol / DMSO [2] [log10] | log partition oleylalcohol / HPLC water, unbuffered, traces of methanol / DMSO [2] [log10] | log partition toluene / HPLC water, unbuffered, traces of methanol / DMSO [2] [log10]
O=S(=O)(O)C(F)(F)F | -1.49 | -1.234 | 1.635 | -0.7044 | 1.509 | -0.8208 | -0.9229 | -0.955 | -1.56 | -0.8212 |  |  |  |  |  |  |  |  |  | 
Oc1c(Cl)cc(Cl)c(Cl)c1Cc1c(O)c(Cl)cc(Cl)c1Cl | 3.536 | 2.622 | 2.343 | 2.027 | 1.996 | 1.5 | 1.932 | 2.251 | 2.088 | 2.305 |  |  |  |  |  |  |  |  |  | 
Oc1c(Cl)cc(Cl)cc1Sc1cc(Cl)cc(Cl)c1O | 0.7477 | 1.778 | 1.227 | 1.174 | 1.541 | 1.101 | 1.178 | 0.844 | 1.386 | 1.7 |  |  |  |  |  |  |  |  |  | 
CO/C=C(/C(=O)OC)c1ccccc1Oc1cc(Oc2ccccc2C#N)ncn1 | 2.62 | 3.136 | 2.817 | 1.291 | 2.944 | 0.8262 | 0.8047 | 0.5559 | 2.323 | 2.329 |  |  |  |  |  |  |  |  |  | 
COC(=O)c1ccc(C(=O)OC)c(C(=O)OC)c1 |  |  |  |  |  |  |  |  |  |  | 1.294 | 0.7248 | 1.573 | 1.164 | 1.169 | 0.9609 | 1.205 | 0.9207 | 0.6631 | 1.185
